Results as given in patent US7371766B2, “Curcumin analogs with anti-tumor and anti-angiogenic properties” (Emory University, priority 1999, dated 2008).

Experiments:
M14 = conditions: 48 hours; for GI50: read-out: Median Growth Inhibitory Concentration (GI50), M14, Melanoma
SK-MEL-2 = conditions: 48 hours; for GI50: read-out: Median Growth Inhibitory Concentration (GI50), SK-MEL-2, Melanoma
NCI/ADR-RES = conditions: for GI50: read-out: Median Growth Inhibitory Concentration (GI50), Breast Cancer, 48 hours
OVCAR-4 = conditions: 48 hours; for GI50: read-out: Median Growth Inhibitory Concentration (GI50), OVCAR-4, Ovarian Cancer
SW-620 = conditions: 48 hours; for GI50: read-out: Median Growth Inhibitory Concentration (GI50), SW-620, Colon Cancer
A498 = conditions: 48 hours; for GI50: read-out: Median Growth Inhibitory Concentration (GI50), A498, Renal Cancer
U251 = conditions: 48 hours; for GI50: read-out: Median Growth Inhibitory Concentration (GI50), U251, CNS Cancer
NCI-H460 = conditions: 48 hours; for GI50: read-out: Median Growth Inhibitory Concentration (GI50), NCI-H460, Non-Small Cell Lung Cancer
EKVX = conditions: for GI50: read-out: Median Growth Inhibitory Concentration (GI50), Non-Small Cell Lung Cancer, 48 hours
MDA-MB-231 = conditions: 48 hours; for GI50: read-out: Median Growth Inhibitory Concentration (GI50), MDA-MB-231, Breast Cancer
OVCAR-5 = conditions: 48 hours; for GI50: read-out: Median Growth Inhibitory Concentration (GI50), OVCAR-5, Ovarian Cancer
LOX IMVI = conditions: for GI50: read-out: Median Growth Inhibitory Concentration (GI50), Melanoma, 48 hours
K-562 = conditions: 48 hours; for GI50: read-out: Median Growth Inhibitory Concentration (GI50), K-562, Leukemia
SNB-19 = conditions: 48 hours; for GI50: read-out: Median Growth Inhibitory Concentration (GI50), SNB-19, CNS Cancer
HT29 = conditions: 48 hours; for GI50: read-out: Median Growth Inhibitory Concentration (GI50), HT29, Colon Cancer
DU-145 = conditions: 48 hours; for GI50: read-out: Median Growth Inhibitory Concentration (GI50), DU-145, Prostate Cancer
HCC-2998 = conditions: 48 hours; for GI50: read-out: Median Growth Inhibitory Concentration (GI50), HCC-2998, Colon Cancer
HOP-92 = conditions: 48 hours; for GI50: read-out: Median Growth Inhibitory Concentration (GI50), HOP-92, Non-Small Cell Lung Cancer
SF-295 = conditions: 48 hours; for GI50: read-out: Median Growth Inhibitory Concentration (GI50), SF-295, CNS Cancer
A549 = conditions: 48 hours; for GI50: read-out: Median Growth Inhibitory Concentration (GI50), A549, Non-Small Cell Lung Cancer
UACC-257 = conditions: 48 hours; for GI50: read-out: Median Growth Inhibitory Concentration (GI50), UACC-257, Melanoma
UACC-62 = conditions: 48 hours; for GI50: read-out: Median Growth Inhibitory Concentration (GI50), UACC-62, Melanoma
HL-60 (TB) = conditions: for GI50: read-out: Median Growth Inhibitory Concentration (GI50), Leukemia, 48 hours
PC-3 = conditions: 48 hours; for GI50: read-out: Median Growth Inhibitory Concentration (GI50), PC-3, Prostate Cancer
NCI-H522 = conditions: 48 hours; for GI50: read-out: Median Growth Inhibitory Concentration (GI50), NCI-H522, Non-Small Cell Lung Cancer
MALME-3M = conditions: for GI50: read-out: Median Growth Inhibitory Concentration (GI50), Melanoma, 48 hours
MCF-7 = conditions: 48 hours; for GI50: read-out: Median Growth Inhibitory Concentration (GI50), MCF-7, Breast Cancer
IGROV1 = conditions: 48 hours; for GI50: read-out: Median Growth Inhibitory Concentration (GI50), IGROV1, Ovarian Cancer
TK-10 = conditions: 48 hours; for GI50: read-out: Median Growth Inhibitory Concentration (GI50), TK-10, Renal Cancer
T-47D = conditions: for GI50: read-out: Median Growth Inhibitory Concentration (GI50), Breast Cancer, 48 hours
NCI-H23 = conditions: 48 hours; for GI50: read-out: Median Growth Inhibitory Concentration (GI50), NCI-H23, Non-Small Cell Lung Cancer
HS 578T = conditions: for GI50: read-out: Median Growth Inhibitory Concentration (GI50), Breast Cancer, 48 hours
[1] = read-out: Median Lethal Concentration (LC50), Breast Cancer, 48 hours, SRB assay
[2] = read-out: Median Lethal Concentration (LC50), Melanoma, 48 hours, SRB assay

In the case of `C(=C\c1ccccc1)/S/C=C/c1ccccc1` [EF15], the GI50 (M14) is reported as over 100 µM, the GI50 (SK-MEL-2) is reported as 31.7 µM and the GI50 (NCI/ADR-RES) is reported as over 100 µM. For the same compound, the GI50 (OVCAR-4) was over 100 µM, the GI50 (SW-620) was 79.8 µM and the GI50 (A498) was 23.3 µM. The GI50 (U251) was 95.1 µM, the GI50 (NCI-H460) was over 100 µM and the GI50 (EKVX) was 64 µM. For the same compound, the GI50 (MDA-MB-231) was over 100 µM, the GI50 (OVCAR-5) was over 100 µM and the GI50 (LOX IMVI) was over 100 µM. For the same compound, the GI50 (K-562) was 78.5 µM, the GI50 (SNB-19) was over 100 µM and the GI50 (HT29) was 46.1 µM. The GI50 (DU-145) was over 100 µM, the GI50 (HCC-2998) was 31.6 µM and the GI50 (HOP-92) was over 100 µM. The GI50 (SF-295) was 80.9 µM, the GI50 (A549) was over 100 µM and the GI50 (UACC-257) was 55.4 µM. The GI50 (UACC-62) was 66.7 µM, the GI50 (HL-60 (TB)) was 49.9 µM and the GI50 (PC-3) was over 100 µM. It also gave a GI50 (NCI-H522) of 69.9 µM, a GI50 (MALME-3M) of over 100 µM and a GI50 (MCF-7) of 44.6 µM. It also gave a GI50 (IGROV1) of over 100 µM, a GI50 (TK-10) of over 100 µM and a GI50 (T-47D) of 18.5 µM. It also gave a GI50 (NCI-H23) of over 100 µM and a GI50 (HS 578T) of over 100 µM.

For `O=C1C(=Cc2ccccc2O)COCC1=Cc1ccccc1O` [EF25, 3,5-Bis(2-hyrdoxybenzylidene)tetrahydro4-H-pyran4-one], the GI50 (M14) was 1.8 µM, the CC50 (M14; read-out: Median Lethal Concentration (LC50), Melanoma, M14, SRB assay) was 19.4 µM and the GI50 (SK-MEL-2) was 2 µM. It also gave a CC50 (SK-MEL-2; read-out: Median Lethal Concentration (LC50), Melanoma, SK-MEL-2, SRB assay) of 12.6 µM, a GI50 (NCI/ADR-RES) of 1.6 µM and a CC50 (NCI/ADR-RES; [1]) of 71 µM. The GI50 (OVCAR-4) was 2 µM, the CC50 (OVCAR-4; read-out: Median Lethal Concentration (LC50), Ovarian Cancer, OVCAR-4, SRB assay) was 23.3 µM and the GI50 (SW-620) was 0.5 µM. For the same compound, the CC50 (SW-620; read-out: Median Lethal Concentration (LC50), Colon Cancer, SW-620, SRB assay) was 75.3 µM, the GI50 (A498) was 1.3 µM and the CC50 (A498; read-out: Median Lethal Concentration (LC50), Renal Cancer, A498, SRB assay) was 6 µM. It also gave a GI50 (U251) of 0.7 µM, a CC50 (U251; read-out: Median Lethal Concentration (LC50), CNS Cancer, U251, SRB assay) of 5.8 µM and a GI50 (NCI-H460) of 1.2 µM. For the same compound, the CC50 (NCI-H460; read-out: Median Lethal Concentration (LC50), Non-Small Cell Lung Cancer, NCI-H460, SRB assay) was 38.9 µM, the GI50 (EKVX) was 1.4 µM and the CC50 (EKVX; read-out: Median Lethal Concentration (LC50), Non-Small Cell Lung Cancer, 48 hours, SRB assay) was 24.2 µM. The GI50 (MDA-MB-231) was 1.9 µM, the CC50 (MDA-MB-231; read-out: Median Lethal Concentration (LC50), Breast Cancer, MDA-MB-231, SRB assay) was 17.2 µM and the GI50 (OVCAR-5) was 1.7 µM. For the same compound, the CC50 (OVCAR-5; read-out: Median Lethal Concentration (LC50), Ovarian Cancer, OVCAR-5, SRB assay) was 8.4 µM, the GI50 (LOX IMVI) was 0.2 µM and the CC50 (LOX IMVI; [2]) was 3.6 µM. It also gave a GI50 (K-562) of 0.6 µM, a CC50 (K-562; read-out: Median Lethal Concentration (LC50), Leukemia, K-562, SRB assay) of 91.8 µM and a GI50 (SNB-19) of 2.2 µM. It also gave a CC50 (SNB-19; read-out: Median Lethal Concentration (LC50), CNS Cancer, SNB-19, SRB assay) of 37.3 µM, a GI50 (HT29) of 2 µM and a CC50 (HT29; read-out: Median Lethal Concentration (LC50), Colon Cancer, HT29, SRB assay) of 67.5 µM. It also gave a GI50 (DU-145) of 1.2 µM, a CC50 (DU-145; read-out: Median Lethal Concentration (LC50), Prostate Cancer, DU-145, SRB assay) of 20.1 µM and a GI50 (HCC-2998) of 1.5 µM. For the same compound, the CC50 (HCC-2998; read-out: Median Lethal Concentration (LC50), Colon Cancer, HCT-2998, SRB assay) was 5.3 µM, the GI50 (HOP-92) was 2.4 µM and the CC50 (HOP-92; read-out: Median Lethal Concentration (LC50), Non-Small Cell Lung Cancer, HOP-92, SRB assay) was 35.4 µM. The GI50 (SF-295) was 1.7 µM, the CC50 (SF-295; read-out: Median Lethal Concentration (LC50), CNS Cancer, SF-295, SRB assay) was 35 µM and the GI50 (A549) was 2.5 µM. The CC50 (A549; read-out: Median Lethal Concentration (LC50), Non-Small Cell Lung Cancer, A549, SRB assay) was 71.8 µM, the GI50 (UACC-257) was 1.6 µM and the CC50 (UACC-257; read-out: Median Lethal Concentration (LC50), Melanoma, UACC-257, SRB assay) was 8.2 µM. For the same compound, the GI50 (UACC-62) was 1.7 µM, the CC50 (UACC-62; read-out: Median Lethal Concentration (LC50), Melanoma, UACC-62, SRB assay) was 14.4 µM and the GI50 (HL-60 (TB)) was 1.1 µM. It also gave a CC50 (HL-60 (TB); read-out: Median Lethal Concentration (LC50), Leukemia, 48 hours, SRB assay) of over 100 µM, a GI50 (PC-3) of 0.5 µM and a CC50 (PC-3; read-out: Median Lethal Concentration (LC50), Prostate Cancer, PC-3, SRB assay) of 24.8 µM. For the same compound, the GI50 (NCI-H522) was 0.9 µM, the CC50 (NCI-H522; read-out: Median Lethal Concentration (LC50), Non-Small Cell Lung Cancer, NCI-H522, SRB assay) was 14.1 µM and the GI50 (MALME-3M) was 1.9 µM. The CC50 (MALME-3M; [2]) was 19.3 µM, the GI50 (MCF-7) was 0.3 µM and the CC50 (MCF-7; read-out: Median Lethal Concentration (LC50), Breast Cancer, MCF-7, SRB assay) was 44.7 µM. For the same compound, the GI50 (IGROV1) was 0.8 µM, the CC50 (IGROV1; read-out: Median Lethal Concentration (LC50), Ovarian Cancer, IGROV1, SRB assay) was 14.5 µM and the GI50 (TK-10) was 2.2 µM. It also gave a CC50 (TK-10; read-out: Median Lethal Concentration (LC50), Renal Cancer, TK-10, SRB assay) of 24.6 µM, a GI50 (T-47D) of 1.3 µM and a CC50 (T-47D; [1]) of 92.9 µM. The GI50 (NCI-H23) was 1.7 µM, the CC50 (NCI-H23; read-out: Median Lethal Concentration (LC50), Non-Small Cell Lung Cancer, NCI-H23, SRB assay) was 12.9 µM and the GI50 (HS 578T) was 5.1 µM. It also gave a CC50 (HS 578T; [1]) of 72.3 µM.
